Active and inactive are the calls of the source.
What was measured:
Format in all cases: functional, cell-based
L1210 = test: Cytotoxicity against mouse L1210 cells by Valeriote soft agar disk diffusion assay
MC-38 = test: Cytotoxicity against mouse Colon 38 cells by Valeriote soft agar disk diffusion assay
H116 = test: Cytotoxicity against human H116 cells by Valeriote soft agar disk diffusion assay

Measured: Activity

COc1cc2c(cc1O)O[C@@]1(C)CC[C@H]3C(C)(C)CCC[C@]3(C)[C@H]1[C@@H]2OC
inactive: L1210 | MC-38 | H116

COc1cc2c(cc1O)O[C@@]1(C)CC[C@H]3C(C)(C)CCC[C@]3(C)C1=C2
inactive: L1210 | MC-38 | H116

COC1=CC2=C[C@@H]3[C@@]4(C)CCCC(C)(C)[C@@H]4CC[C@]3(C)OC2=CC1=O
inactive: L1210 | MC-38 | H116

From ChEMBL document CHEMBL1158881, “Puupehenone congeners from an indo-pacific hyrtios sponge” (J Nat Prod, 2003)
